Literature values, collected in patent US20130267562A1, “ACTIVE ENANTIOMER OF DODECYL 2-(N,N-DIMETHYLAMINO)-PROPIONATE” (NEXMED HOLDINGS, INC, priority 2010, published 2013).

miscibility with organic solvents (most organic solvents): miscible with most organic solvents
solubility in water (water): not soluble
Compound: CCCCCCCCCCCCOC(=O)C(C)N(C)C (racemic) [Racemic DDAIP, dodecyl 2-methyl-2-(N,N-dimethylamino)acetate]
